# In PubChem BioAssay (NCI):
#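 Exposure lasted 48 hours, with cells grown in 96-well plates and compounds tested at five concentrations. TGI: concentration producing complete growth inhibition.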
# Experiments:
# Experiment in all cases: NCI-60 cell line screen, 48 h
# [1] = test system: M14 melanoma
# [2] = test system: HOP-62 NSCLC
# [3] = test system: OVCAR-3 ovarian
# [4] = test system: SK-MEL-28 melanoma
# [5] = test system: U251 CNS
# [6] = test system: UACC-257 melanoma
# [7] = test system: COLO 205 colon
# [8] = test system: EKVX NSCLC
# [9] = test system: ACHN renal
# [10] = test system: SNB-19 CNS
# [11] = test system: 786-0 renal
# [12] = test system: SF-268 CNS
# [13] = test system: SF-539 CNS
# [14] = test system: NCI-H23 lung
# [15] = test system: OVCAR-8 ovarian
# [16] = test system: SNB-75 CNS
# [17] = test system: KM20L2 colon
# [18] = test system: RPMI-8226 leukemia
# [19] = test system: DMS 273 small cell lung
# [20] = test system: MOLT-4 leukemia
# [21] = test system: A549 NSCLC
# [22] = test system: SR leukemia
# [23] = test system: LXFL 529 NSCLC
# [24] = test system: UACC-62 melanoma
# [25] = test system: CAKI-1 renal
# [26] = test system: KM12 colon
# [27] = test system: HCT-116 colon
# [28] = test system: XF 498 CNS
# [29] = test system: SN12C renal
# [30] = test system: UO-31 renal
# [31] = test system: HOP-92 NSCLC
# [32] = test system: RXF 393 renal
# [33] = test system: SNB-78 CNS
# [34] = test system: TK-10 renal
# [35] = test system: M19-MEL melanoma
# [36] = test system: HCC-2998 colon
# [37] = test system: LOX IMVI melanoma
# [38] = test system: SF-295 CNS
# [39] = test system: K-562 leukemia
# [40] = test system: NCI-H522 lung
# [41] = test system: DMS 114 small cell lung
# [42] = test system: SK-OV-3 ovarian
# [43] = test system: IGROV1 ovarian
# [44] = test system: SW-620 colon
# [45] = test system: OVCAR-5 ovarian
# [46] = test system: HOP-18 NSCLC
# [47] = test system: MALME-3M melanoma
# [48] = test system: NCI-H460 lung
# [49] = test system: OVCAR-4 ovarian
# [50] = test system: SK-MEL-2 melanoma
# [51] = test system: DLD-1 colon
# [52] = test system: HCT-15 colon
# [53] = test system: HL-60(TB) leukemia
# [54] = test system: HT29 colon
# [55] = test system: SK-MEL-5 melanoma
# [56] = test system: CCRF-CEM leukemia
# [57] = test system: RXF-631 renal
# [58] = test system: NCI-H226 lung
smiles,measurement,setting,value
O=c1oc2c3ccc4ccccc4c3n(CCN3CCCCC3)c2c2ccccc12,TGI,[1],> 100 µM
same,TGI,[2],58.9 µM
same,TGI,[3],54.1 µM
same,TGI,[4],> 100 µM
same,TGI,[5],65 µM
same,TGI,[6],> 100 µM
same,TGI,[7],> 100 µM
same,TGI,[8],> 100 µM
same,TGI,[9],> 100 µM
same,TGI,[10],> 100 µM
same,TGI,[11],27.9 µM
same,TGI,[12],> 68.7 µM
same,TGI,[13],> 49.4 µM
same,TGI,[14],> 69.5 µM
same,TGI,[15],> 67.3 µM
same,TGI,[16],19.6 µM
same,TGI,[17],> 100 µM
same,TGI,[18],> 100 µM
same,TGI,[19],> 100 µM
same,TGI,[20],> 100 µM
same,TGI,[21],> 100 µM
same,TGI,[22],> 100 µM
same,TGI,[23],> 100 µM
same,TGI,[24],> 78.8 µM
same,TGI,[25],> 100 µM
same,TGI,[26],> 100 µM
same,TGI,[27],> 100 µM
same,TGI,[28],42.9 µM
same,TGI,[29],> 100 µM
same,TGI,[30],> 100 µM
same,TGI,[31],> 100 µM
same,TGI,[32],29.3 µM
same,TGI,[33],> 31.6 µM
same,TGI,[34],> 100 µM
same,TGI,[35],> 100 µM
same,TGI,[36],> 100 µM
same,TGI,[37],> 100 µM
same,TGI,[38],39.3 µM
same,TGI,[39],> 100 µM
same,TGI,[40],> 100 µM
same,TGI,[41],> 100 µM
same,TGI,[42],> 78.5 µM
same,TGI,[43],> 100 µM
same,TGI,[44],> 100 µM
same,TGI,[45],> 100 µM
same,TGI,[46],> 100 µM
same,TGI,[47],> 88.6 µM
same,TGI,[48],> 43.9 µM
same,TGI,[49],> 62 µM
same,TGI,[50],65.6 µM
same,TGI,[51],> 100 µM
same,TGI,[52],> 100 µM
same,TGI,[53],> 100 µM
same,TGI,[54],53.4 µM
same,TGI,[55],> 100 µM
same,TGI,[56],> 91.7 µM
same,TGI,[57],> 100 µM
C=C1C2=C(CCCC2)C(=O)OC12CCCCC2,TGI,[1],> 100 µM
same,TGI,[2],> 100 µM
same,TGI,[3],> 100 µM
same,TGI,[4],> 100 µM
same,TGI,[5],> 100 µM
same,TGI,[6],> 100 µM
same,TGI,[7],> 100 µM
same,TGI,[8],> 100 µM
same,TGI,[9],> 100 µM
same,TGI,[10],> 100 µM
same,TGI,[11],> 100 µM
same,TGI,[12],> 100 µM
same,TGI,[13],> 100 µM
same,TGI,[14],> 100 µM
same,TGI,[15],> 100 µM
same,TGI,[16],> 100 µM
same,TGI,[17],> 100 µM
same,TGI,[18],> 100 µM
same,TGI,[19],> 100 µM
same,TGI,[20],> 100 µM
same,TGI,[21],> 100 µM
same,TGI,[22],> 100 µM
same,TGI,[23],> 100 µM
same,TGI,[24],> 100 µM
same,TGI,[26],> 100 µM
same,TGI,[27],> 100 µM
same,TGI,[28],> 100 µM
same,TGI,[29],> 100 µM
same,TGI,[30],> 100 µM
same,TGI,[31],77.9 µM
same,TGI,[32],> 100 µM
same,TGI,[34],> 100 µM
same,TGI,[35],> 100 µM
same,TGI,[36],> 100 µM
same,TGI,[37],> 100 µM
same,TGI,[38],> 100 µM
same,TGI,[39],> 100 µM
same,TGI,[40],> 100 µM
same,TGI,[41],> 100 µM
same,TGI,[42],> 100 µM
same,TGI,[43],> 100 µM
same,TGI,[44],> 100 µM
same,TGI,[45],> 100 µM
same,TGI,[46],> 100 µM
same,TGI,[47],> 100 µM
same,TGI,[48],> 100 µM
same,TGI,[49],> 100 µM
same,TGI,[50],> 100 µM
same,TGI,[58],> 100 µM
same,TGI,[51],> 100 µM
same,TGI,[52],> 100 µM
same,TGI,[53],> 100 µM
same,TGI,[54],> 100 µM
same,TGI,[55],> 100 µM
same,TGI,[56],> 100 µM
same,TGI,[57],> 100 µM
